Results on 5 compounds are retold here after patent publication US20230265116A1, “DEGRADATION OF (EGFR) BY CONJUGATION OF EGFR INHIBITORS WITH E3 LIGASE LIGAND AND METHODS OF USE” (BEIGENE, LTD., priority 2020, published 2023).

Assay [1] addresses T1, EGFR L858R/T790M/C797S (BaF3-LTC cells) (Homo sapiens, UniProt P00533, C797S/L858R/T790M).
T1 construct: expressed in transfected cells; host or cells: BaF3
In words: EGFR degradation HTRF assay, BaF3-LTC cells. The conditions noted are these: BaF3-LTC, 16h treatment; for Dmax: maximum percentage of degradation, read-out: LTC Dmax (%); for DC50: read-out: LTC DC50. It counts as cell-based. Put shortly:
(§1)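 EGFR remaining after a 16 h, 37 °C exposure (8 doses, 5-fold steps from 10 uM final, 0.2% DMSO) was quantified by HTRF antibodies in cell lysate. Percent inhibition relative to DMSO control was fitted by four-parameter logistic to give DC50; Dmax denotes maximal degradation.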

Assay [2] has as its system EGFR Del19/T790M/C797S (BaF3-DTC cells). As to the kind of experiment: EGFR degradation HTRF assay, BaF3-DTC cells. It counts as cell-based. To be noted: 16h treatment; for DTC Dmax (%): maximum percentage of degradation; for DC50: read-out: DTC DC50. The method in brief:
as §1

T1 sequence (P00533 25-1210 T790M/C797S/L858R): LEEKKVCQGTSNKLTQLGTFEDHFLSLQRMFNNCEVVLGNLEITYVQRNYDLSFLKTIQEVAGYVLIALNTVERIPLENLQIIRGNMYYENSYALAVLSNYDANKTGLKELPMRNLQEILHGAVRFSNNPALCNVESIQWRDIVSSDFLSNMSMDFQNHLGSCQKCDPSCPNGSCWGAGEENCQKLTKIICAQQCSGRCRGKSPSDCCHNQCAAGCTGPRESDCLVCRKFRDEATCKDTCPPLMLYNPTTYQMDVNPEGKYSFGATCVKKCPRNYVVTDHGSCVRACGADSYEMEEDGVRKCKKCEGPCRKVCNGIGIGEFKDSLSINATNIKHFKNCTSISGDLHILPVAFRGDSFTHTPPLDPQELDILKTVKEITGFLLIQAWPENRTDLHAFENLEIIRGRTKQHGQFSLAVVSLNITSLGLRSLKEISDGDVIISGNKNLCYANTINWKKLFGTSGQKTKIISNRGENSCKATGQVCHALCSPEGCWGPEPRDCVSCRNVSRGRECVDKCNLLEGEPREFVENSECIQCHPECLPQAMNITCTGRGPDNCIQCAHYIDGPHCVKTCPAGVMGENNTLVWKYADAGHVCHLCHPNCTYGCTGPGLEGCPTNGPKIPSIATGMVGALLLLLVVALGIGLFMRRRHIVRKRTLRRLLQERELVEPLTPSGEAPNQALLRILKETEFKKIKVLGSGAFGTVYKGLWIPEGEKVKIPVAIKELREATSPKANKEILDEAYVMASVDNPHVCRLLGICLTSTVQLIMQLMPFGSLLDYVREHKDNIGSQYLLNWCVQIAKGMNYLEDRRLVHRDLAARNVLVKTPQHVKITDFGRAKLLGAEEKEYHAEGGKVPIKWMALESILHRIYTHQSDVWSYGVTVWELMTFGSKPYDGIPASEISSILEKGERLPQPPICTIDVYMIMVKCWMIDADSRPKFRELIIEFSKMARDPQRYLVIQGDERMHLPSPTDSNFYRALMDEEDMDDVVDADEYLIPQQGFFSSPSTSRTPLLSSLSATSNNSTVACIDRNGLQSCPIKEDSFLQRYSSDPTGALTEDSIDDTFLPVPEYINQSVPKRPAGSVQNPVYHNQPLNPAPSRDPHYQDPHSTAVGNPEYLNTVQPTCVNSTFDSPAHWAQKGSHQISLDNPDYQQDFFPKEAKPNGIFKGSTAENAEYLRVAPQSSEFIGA

As for `CCc1cc(Nc2ncc(Br)c(Nc3ccc4nccnc4c3P(C)(C)=O)n2)c(OC)cc1N1CCC(N2CCN(C[C@@H]3CCN(c4ccc5c(c4)C(=O)N(C4CCC(=O)NC4=O)C5=O)C3)CC2)CC1` (stereo partly drawn) [Example 235, 5-((S)-3-((4-(1-(4-((5-bromo-4-((5-(dimethylphosphoryl)quinoxalin-6-yl)amino)pyrimidin-2-yl)amino)-2-ethyl-5-methoxyphenyl)piperidin-4-yl)piperazin-1-yl)methyl)pyrrolidin-1-yl)-2-(2,6-dioxopiperidin-3-yl)isoindoline-1,3-dione], in assay [1], the Dmax stood at 78% and the DC50 came to 0.0301 µM. Further, in assay [2], the “DTC Dmax (%)” value is reported as 81.09% and the DC50 is 0.0175 µM.
The matching figures for `CCc1cc(Nc2ncc(Br)c(Nc3ccc4nc(C)ccc4c3P(C)(C)=O)n2)c(OC)cc1N1CCC(N2CCN(C3CC(c4ccc(NC5CCC(=O)NC5=O)cc4)C3)CC2)CC1` (centres unmarked) [Example 709, 3-((4-(3-(4-(1-(4-((5-bromo-4-((5-(dimethylphosphoryl)-2-methylquinolin-6-yl)amino)pyrimidin-2-yl)amino)-2-ethyl-5-methoxyphenyl)piperidin-4-yl)piperazin-1-yl)cyclobutyl)phenyl)amino)piperidine-2,6-dione]: 87.9%, 0.0216 µM, 84.65% and 0.0198 µM.
The like results for `CCc1cc(Nc2ncc(Br)c(Nc3ccc4nc(C)ccc4c3P(C)(C)=O)n2)c(OC)cc1N1CCC(N2CCN(C(=O)C(C)(C)CNc3cc(F)c(C4CCC(=O)NC4=O)c(F)c3)CC2)CC1` (centres unmarked) [Example 706, 3-(4-((3-(4-(1-(4-((5-bromo-4-((5-(dimethylphosphoryl)-2-methylquinolin-6-yl)amino)pyrimidin-2-yl)amino)-2-ethyl-5-methoxyphenyl)piperidin-4-yl)piperazin-1-yl)-2,2-dimethyl-3-oxopropyl)amino)-2,6-difluorophenyl)piperidine-2,6-dione] were, in that order, 90.8%, 0.00564 µM, 88.51% and 0.00217 µM.
For `CCc1cc(Nc2ncc(Br)c(Nc3ccc4nccnc4c3P(C)(C)=O)n2)c(OC)cc1N1CCC(N2CCN(C[C@H]3CCN(c4ccc5c(c4)CN(C4CCC(=O)NC4=O)C5=O)C3)CC2)CC1` (stereo partly drawn) [Example 237, 3-(5-((R)-3-((4-(1-(4-((5-bromo-4-((5-(dimethylphosphoryl)quinoxalin-6-yl)amino)pyrimidin-2-yl)amino)-2-ethyl-5-methoxyphenyl)piperidin-4-yl)piperazin-1-yl)methyl)pyrrolidin-1-yl)-1-oxoisoindolin-2-yl)piperidine-2,6-dione], in assay [1], the Dmax worked out at 92.5% and the half-maximal degradation concentration (DC50) was determined as 0.00947 µM. For the same compound, in assay [2], the “DTC Dmax (%)” value is on record as 92.67% and the half-maximal degradation concentration (DC50) is 0.00615 µM.
The like results for `CCc1cc(Nc2ncc(Br)c(Nc3ccc4nccnc4c3P(C)(C)=O)n2)c(OC)cc1N1CCC(N2CCN(CC3CN(c4ccc(C5CCC(=O)NC5=O)cc4)C3)CC2)CC1` (centres unmarked) [Example 231, 3-(4-(3-((4-(1-(4-((5-bromo-4-((5-(dimethylphosphoryl)quinoxalin-6-yl)amino)pyrimidin-2-yl)amino)-2-ethyl-5-methoxyphenyl)piperidin-4-yl)piperazin-1-yl)methyl)azetidin-1-yl)phenyl)piperidine-2,6-dione] were, in that order, 77.6%, 0.0253 µM, 76.04% and 0.00828 µM.
